This is an account of results in EP1836906B1, “Healthy food product” (Unilever N.V., priority 2006, dated 2009).

Like-named read-outs stand apart in the source and are kept apart here. Ends that are not written are not given here.

Data set [1] is described as follows: Water solubility test (turbid appearance of 10 mg peptide in 10 ml de-mineralised water). Particulars: water at 20 C and pH 6.5.
Experimental: (§1) Peptides for use in food products according to the invention are water-insoluble in water at 20°C and a pH of 6.5. This can for example be evidenced by mixing 10 mg of the peptide into 10 ml of de-mineralised water at 20°C and pH 6.5, and stirring. A (measurable) turbid appearance of the solution after stirring is indicative of the fact that the peptide is water-insoluble.
For data set [2] the following is noted: pH 6.5.
Experimental: as §1

GGGGGGGG [GGGGGGGG]: in data set [1], the “Peptide category (substantially water-insoluble or soluble)” value (“Peptide category” for short) was “Insoluble peptides”.

DDDDDD [DDDDDD, reference compound]: in data set [1], the “Peptide category” value was “Soluble peptides”.

For the compound GSGGSG [GSGGSG], the “Peptide category” value in data set [1] is “Soluble peptides”.

As to YYYYYY [YYYYYY], in data set [1], the “Peptide category” value is on record as “Insoluble peptides”.

Regarding VEWEME [VEWEME, reference compound], the “Peptide category” value in data set [1] is recorded as “Soluble peptides”.

As for `NCC(=O)NCC(=O)NCC(=O)NCC(=O)NCC(=O)NCC(=O)O` [GGGGGG], the “Peptide category” value in data set [2] is recorded as “Insoluble peptides”.

For EAEWEY [EAEWEY, reference compound], in data set [1], the “Peptide category” value is reported as “Soluble peptides”.
